Assay results: ChEMBL document CHEMBL3137667, “[Drug-induced liver injury; fourteenth updated edition of the bibliographic database of liver injuries and related drugs]” (Gastroenterol Clin Biol, 2004)

Columns and labels:
[1] = human
[2] = Times to onset, minimal and maximal, observed in the indexed observations. [column 'DELAI' in source]; conditions: human
[3] = human, serum
[4] = human; remark: listed apart in the source
[5] = human, serum, 4383 h
[6] = Comments (NB not yet translated). [column 'COMMENTAIRES' in source]; conditions: human
[7] = human, serum; remark: listed apart in the source
[8] = human; remark: listed apart in the source
[9] = human; remark: listed apart in the source
[10] = human; remark: listed apart in the source
[11] = human; remark: listed apart in the source
[12] = Highest frequency of acute liver toxicity observed during clinical trials, expressed as a percentage. [column '% AIGUE' in source]; conditions: human
[13] = human; remark: listed apart in the source
[14] = Presence of at least one case with successful reintroduction. [column 'REINT' in source]; conditions: human
[15] = human; remark: listed apart in the source
[16] = human; remark: listed apart in the source
[17] = Highest frequency of moderate liver toxicity observed during clinical trials, expressed as a percentage. [column '% BIOL' in source]; conditions: human
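Throughout, for Hepatotoxicity (association with vascular disease): count of indexed literature references reporting vascular liver injury in humans, e.g. peliosis hepatitis, hepatic veno-occlusive disease or Budd-Chiari syndrome.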
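Throughout, for Hepatotoxicity (benign tumour): value is a count of indexed literature references citing a benign tumour confirmed by histopathology.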
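Throughout, for Hepatotoxicity (choleostasis): human cholestatic liver injury, shown by histopathology or by peak ALT or AST elevation over alkaline phosphatase ratio below 2, value counts indexed literature reports.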
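Throughout, for Hepatotoxicity (chronic liver disease): chronic liver injury confirmed by histopathology or persistently raised serum aminotransferase activity beyond 6 months, value given as the count of indexed literature references.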
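Throughout, for Hepatotoxicity (cirrhosis): value is a count of indexed literature references reporting cirrhosis confirmed by histopathology.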
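Throughout, for Hepatotoxicity (cytolytic): human cytolytic liver injury, shown by histopathology or by a ratio above 5 of peak ALT or AST elevation to alkaline phosphatase elevation, value counts indexed references.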
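Throughout, for Hepatotoxicity (granulomatous hepatitis): value is a count of indexed literature references reporting granulomatous liver disease confirmed by histopathology.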
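Throughout, for Hepatotoxicity (malignant tumour): malignant tumour confirmed by histopathology, value gives the count of indexed literature references reporting it.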
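Throughout, for Hepatotoxicity (severe hepatitis): human clinical data: severe hepatitis, meaning potentially life-threatening liver failure or clinically observed cases, the value counts how many indexed literature references report it.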
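Throughout, for Hepatotoxicity (steatosis): steatosis confirmed by histopathology, value is the count of indexed references.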

Row | Compound | Hepatotoxicity (benign tumour) [1] | Hepatotoxicity (time to onset) [2] | Hepatotoxicity (acute) [3] | Hepatotoxicity (granulomatous hepatitis) [4] | Hepatotoxicity (chronic liver disease) [5] | Hepatotoxicity (comment) [6] | Hepatotoxicity (moderate) [7] | Hepatotoxicity (choleostasis) [8] | Hepatotoxicity (cirrhosis) [9] | Hepatotoxicity (malignant tumour) [10] | Hepatotoxicity (cytolytic) [11] | Hepatotoxicity (acute) [12] [%] | Hepatotoxicity (steatosis) [13] | Hepatotoxicity (successful reintroduction) [14] | Hepatotoxicity (association with vascular disease) [15] | Hepatotoxicity (severe hepatitis) [16] | Hepatotoxicity (moderate) [17] [%] | Hepatotoxicity (acute) ([12]; Liver) [%] | Hepatotoxicity (severe hepatitis) ([16]; Liver) | Hepatotoxicity (moderate) ([17]; Liver) [%]
1 | CC1(C)S[C@@H]2[C@H](NC(=O)[C@H](C(=O)O)c3ccsc3)C(=O)N2[C@H]1C(=O)O [TICARCILLIN] | 0 | 2 days - 1 week | 0 | 0 | 0 | RC/CARBENICILLINE | 7 | 0 | 0 | 0 | 0 | 0 | 0 | yes | 0 | 0 | 5 | – | – | –
2 | OCCN1CCN(CCCN2c3ccccc3Sc3ccc(C(F)(F)F)cc32)CC1 [FLUPHENAZINE] | 0 | 2 weeks | 5 | 0 | 0 | RC/HALOPERIDOL | 2 | 4 | 0 | 0 | 1 | 1 | 0 | yes | 0 | 0 | 0 | – | – | –
3 | ALTEPLASE | 0 | 3 days - 4 days | 1 | 0 | 0 | AGGRAVATION_MVO | 4 | 0 | 0 | 0 | 1 | 0 | 0 | yes | 0 | 0 | 21.2 | – | – | –
4 | CN1Cc2c(N)cccc2C(c2ccccc2)C1 (stereo not given) [NOMIFENSINE] | 0 | 3 days - 3 months | 11 | 5 | 0 | RC/MIANSERINE | 6 | 6 | 0 | 0 | 8 | 0 | 0 | yes | 0 | 0 | 0 | – | – | –
5 | CC(CCc1ccccc1)NCC(O)c1ccc(O)c(C(N)=O)c1 (stereo not given) [LABETALOL] | 0 | 3 weeks - 6 months | 6 | 0 | 0 | AC_ANTI-N | 5 | 0 | 0 | 0 | 6 | 0.9 | 0 | yes | 0 | 4 | 20.5 | – | – | –
6 | Cc1ncc(CSSCc2cnc(C)c(O)c2CO)c(CO)c1O [PYRITINOL] | 0 | 1 day - 2 months | 6 | 0 | 0 | CHOLESTASE_PROLONGEE | 1 | 4 | 0 | 0 | 1 | 0 | 1 | yes | 0 | 1 | 1.4 | – | – | –
7 | Nc1ccn([C@@H]2CS[C@H](CO)O2)c(=O)n1 [LAMIVUDINE] | 0 | 10 days - 3 years | 30 | 0 | 1 | REACTIVATION_HVB REACTIVATION_HVC | 15 | 1 | 0 | 0 | 26 | – | 13 | yes | 0 | – | – | 12.5 | 15 | 44
8 | CCN(CC)CCCC(C)Nc1c2ccc(Cl)cc2nc2ccc(OC)cc12 (stereo not given) [QUINACRINE] | 0 | 1 week - 4 months | 4 | 0 | 0 | CHOLANGITE | 2 | 1 | 0 | 0 | 2 | 0.1 | 0 | yes | 0 | 1 | 0 | – | – | –
9 | Cc1ccc(S(=O)(=O)NC(=O)NN2CCCCCC2)cc1 [TOLAZAMIDE] | 0 | 3 weeks - 18 months | 5 | 0 | 0 | CHOLESTASE_PROLONGEE RC/CHLORPROPAMIDE | 0 | 4 | 0 | 0 | 5 | 0 | 0 | yes | 0 | 1 | 0 | – | – | –
10 | C[C@]12CC[C@@H]3c4ccc(OC(=O)N(CCCl)CCCl)cc4CC[C@H]3[C@@H]1CC[C@@H]2O [ESTRAMUSTINE] | 0 | 1 month | 2 | 0 | 1 | NASH | 3 | 0 | 0 | 0 | 1 | 2 | 1 | yes | 0 | 0 | 2 | – | – | –
